This note sets out measurements from patent publication US20060115538A1, “Calcium lactate and whey permeate for lowering the triglyceride level” (priority 2002, published 2006).

Common to all, as to type: in vivo
For assay [1], the system named is WOK.W rat. The assay can be described thus: Feeding trial in male WOK.W rats: serum triglycerides. Particulars: 16 weeks old, after 12 weeks supplementation via drinking water, mean ± SEM, pathological threshold >2.3 mmol/l, a: P < 0.01. The source says: (§1) Both pharmacological and nutrition-induced intervention trials on patients with an increased triglyceride level are above all time consuming, in order to detect changes of the metabolism, and require a high degree of discipline and motivation of the test persons or patients taking part in the studies. In part, these disadvantages can be lessened or eliminated by animal experiments, under the precondition that equivalent animal models are available. […] The specific properties of WOK.W rats are described, e.g., in: • P. Kovacs et al., Ann. N.Y. Acad. Sci., 1997, 827, 94-99; • P. Kovacs et al., Biochem. Biophsy. Res. Commun., 2000, 660-665; • J. van den Brandt et al., Int. J. Obesity, 2000, 24, 1618-1622; • J. van den Brandt et al., Metabolism 49, 2000, 1140-1144. […]
(§2) Body weight, body length (for the calculation of the mody mass index, BMI), plasma glucose, and serum triglycerides were recorded every 2 weeks. […]
(§3) Plasma glucose was measured enzymatically using a glucose analyzer. Lipid metabolism parameters were determined enzymatically with an automated analyzer for clinical chemistry, with kits (Boehringer Mannheim: triglycerides with TG GPO-PAP), according to the supplied instruction manuals. […]
(§4) The results are represented as mean values ±SEM and the statistical significance was calculated using Student's t-test.

Assay [2] deals with WOK.W rat. The assay can be described thus: Feeding trial in male WOK.W rats: plasma glucose. The conditions noted are these: 16 weeks old, after 12 weeks supplementation via drinking water, mean ± SEM, pathological threshold >8.4 mmol/l.
Description: as §1, §2, §3, §4

For assay [3], the system named is WOK.W rat. Description: Feeding trial in male WOK.W rats: body mass, BMI, pararenal adipose tissue. The conditions noted are these: 16 weeks old, after 12 weeks supplementation via drinking water, mean ± SEM.
Description: Both pharmacological and nutrition-induced intervention trials on patients with an increased triglyceride level are above all time consuming, in order to detect changes of the metabolism, and require a high degree of discipline and motivation of the test persons or patients taking part in the studies. In part, these disadvantages can be lessened or eliminated by animal experiments, under the precondition that equivalent animal models are available. […] The specific properties of WOK.W rats are described, e.g., in: • P. Kovacs et al., Ann. N.Y. Acad. Sci., 1997, 827, 94-99; • P. Kovacs et al., Biochem. Biophsy. Res. Commun., 2000, 660-665; • J. van den Brandt et al., Int. J. Obesity, 2000, 24, 1618-1622; • J. van den Brandt et al., Metabolism 49, 2000, 1140-1144.
31 male WOK.W rats (from 8 litters) were divided, at an age of 4 weeks, into 4 groups, such that one sibling was represented in each group. Group 1 (n=8 animals) was fed and watered ad libitum and served as an untreated control group. Group 2 (n=7 animals) received drinking water to which had been added whey permeate (25 g sweet whey permeate/1000 ml drinking water), a daily water requirement of 20 ml on average being assumed as the basis of the calculation. Group 3 (n=8 animals) received drinking water to which had been added calcium L-lactate (5,6 g calcium L-lactate/1000 ml drinking water), and group 4 (n=8 animals) received whey permeate and calcium L-lactate in identical concentrations. The treatment trial began at an age of 4 weeks, i.e. before the development of the most important symptoms of the metabolic syndrome, and continued for 12 weeks, until an age of 16 weeks.
as §2, §4

For the compound `C[C@H](O)C(=O)[O-].C[C@H](O)C(=O)[O-].[Ca+2]` [Calcium lactate, calcium L-lactate], in the assay with WOK.W rat [1], the Triglyceride is 3.88 ± 0.22 mmol/L. For the same compound, the Blood sugar with WOK.W rat [2] amounted to 6.10 ± 0.21 mmol/L. In addition, in the assay on WOK.W rat [3], the BMI was 0.77 ± 0.01 g/cm^2 and the Body mass was determined as 394.3 ± 10.6 G. In addition, the Adipose tissue with WOK.W rat [3] (pararenal adipose tissue) worked out at 10.01 ± 0.71 G.
